Data from patent publication US8658604B2, “Template-fixed beta-hairpin peptidomimetics with protease inhibitory activity” (Polyphor Ltd, priority 2005, dated 2014).
Read-outs that look alike come from different tables or passages of the source. Where a SMILES comes first, the peptide text is derived from it.

Columns and labels:
[1] = biological target: T1, Elastase from human neutrophils (Homo sapiens, UniProt P08246); experiment: Enzymatic assay, elastase
T1 sequence (P08246 30-267): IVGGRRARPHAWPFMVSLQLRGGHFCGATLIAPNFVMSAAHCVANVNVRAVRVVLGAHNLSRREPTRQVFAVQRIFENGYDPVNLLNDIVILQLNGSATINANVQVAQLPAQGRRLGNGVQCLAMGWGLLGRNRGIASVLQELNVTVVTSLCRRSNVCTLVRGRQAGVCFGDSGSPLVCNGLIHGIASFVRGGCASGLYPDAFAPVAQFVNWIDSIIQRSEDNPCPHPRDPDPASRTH

[2] = biological target: Thrombin, from Human Plasma (Homo sapiens, UniProt P00734); experiment: Enzymatic assay, thrombin
[3] = biological target: Coagulation Factor Xa, from uman plasma (Homo sapiens, UniProt P00742); experiment: Enzymatic assay, coagulation factor Xa
Sequence of Coagulation Factor Xa, from uman plasma (P00742 235-488 limits assumed): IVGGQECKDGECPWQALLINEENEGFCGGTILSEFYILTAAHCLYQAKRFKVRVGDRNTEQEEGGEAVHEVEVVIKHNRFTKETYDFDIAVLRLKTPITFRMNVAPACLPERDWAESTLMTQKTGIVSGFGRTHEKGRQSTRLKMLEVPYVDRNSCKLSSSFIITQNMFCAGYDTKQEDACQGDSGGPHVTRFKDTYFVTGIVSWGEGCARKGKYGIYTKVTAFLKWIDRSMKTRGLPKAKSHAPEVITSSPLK
Sequence of Coagulation Factor Xa, from uman plasma (P00742 41-179 limits assumed): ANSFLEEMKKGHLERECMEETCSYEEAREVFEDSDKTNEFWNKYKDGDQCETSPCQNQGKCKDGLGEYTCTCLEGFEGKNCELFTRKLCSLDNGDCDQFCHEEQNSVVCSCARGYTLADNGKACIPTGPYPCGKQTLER

[4] = system: human red blood cells (hRBC); experiment: Hemolysis
Method: The peptides were tested for their hemolytic activity against human red blood cells (hRBC). Fresh hRBC were washed three times with phosphate buffered saline (PBS) by centrifugation for 10 min at 2000×g. Peptides at a concentration of 100 μM were incubated with 20% v/v hRBC for 1 hour at 37° C. The final erythrocyte concentration was approximately 0.9×10^9 cells per ml. A value of 0% and, respectively, 100% cell lysis was determined by incubation of the hRBC in the presence of PBS alone and, respectively, 0.1% Triton X-100 in H2O. […] The 100% lysis value (OD540H20) gave an OD540 of approximately 1.3-1.8. Percent hemolysis was calculated as follows: (OD540peptide/OD540H20)×100%.

[5] = system: Tryptase, from human lung; experiment: Enzymatic assay, tryptase; settings: at 100 μM
Chymase, from human skin = biological target: T2, Chymase, from human skin (Homo sapiens, UniProt P23946); experiment: Enzymatic assay, chymase
T2 sequence (P23946 22-247): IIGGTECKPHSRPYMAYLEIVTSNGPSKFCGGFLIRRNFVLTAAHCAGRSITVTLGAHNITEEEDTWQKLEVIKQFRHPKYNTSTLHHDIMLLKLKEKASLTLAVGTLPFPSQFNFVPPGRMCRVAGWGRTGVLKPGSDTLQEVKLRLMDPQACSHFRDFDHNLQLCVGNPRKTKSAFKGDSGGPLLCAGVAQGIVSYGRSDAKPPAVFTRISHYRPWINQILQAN

[6] = biological target: Trypsin, from human pancreas (Homo sapiens, UniProt P07477); experiment: Enzymatic assay, trypsin; settings: at 100 μM
[7] = biological target: T3, CathepsinG, from human neutrophils (Homo sapiens, UniProt P08311); experiment: Enzymatic assay, cathepsin G
T3 sequence (P08311 21-244): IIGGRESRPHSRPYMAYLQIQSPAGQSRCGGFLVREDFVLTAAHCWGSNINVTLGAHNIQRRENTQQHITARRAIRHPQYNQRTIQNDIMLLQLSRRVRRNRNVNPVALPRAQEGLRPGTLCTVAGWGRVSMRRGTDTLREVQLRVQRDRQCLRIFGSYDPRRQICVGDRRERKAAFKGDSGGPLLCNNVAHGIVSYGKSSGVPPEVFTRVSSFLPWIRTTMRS

[8] = biological target: Chymotrypsin, from human pancreas (Homo sapiens, UniProt P17538); experiment: Enzymatic assay, chymotrypsin
Sequence of Chymotrypsin, from human pancreas (P17538 19-263): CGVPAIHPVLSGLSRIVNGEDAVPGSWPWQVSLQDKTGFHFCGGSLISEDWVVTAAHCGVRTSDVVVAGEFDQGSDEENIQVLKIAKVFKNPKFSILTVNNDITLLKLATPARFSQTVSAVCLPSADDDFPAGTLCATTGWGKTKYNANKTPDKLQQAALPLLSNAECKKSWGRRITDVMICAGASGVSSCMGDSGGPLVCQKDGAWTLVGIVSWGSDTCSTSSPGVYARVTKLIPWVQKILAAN

[9] = biological target: Urokinase from human urine (Homo sapiens, UniProt P00749); experiment: Enzymatic assay, urokinase
HELA cells (Acc57) = experiment: Cytotoxicity assay (MTT reduction), HELA cells; format: cell-based; settings: Hela cells
How it was run: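 HeLa cells were grown for 24 h, then exposed to peptides at 12.5, 25 and 50 μM in triplicate for 48 h at 37 °C. MTT reduction was read at 595 nm and growth % calculated relative to time-zero wells. LC50 interpolated by linear trend at −50% growth, GI50 at 50%.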

SMILES	IC50 ([1]; Elastase IC50)	Thrombin at 100 μM % [2]	FXa at 100 μM % [3]	Hemolysis at 100 μM % [4]	Tryptase at 100 μM % [5]	Chymase at 100 μM % (Chymase, from human skin)	Trypsin at 100 μM % [6]	IC50 ([7]; Cathepsin G IC50)	Chymotrypsin at 100 μM % [8]	Urokinase at 100 μM % [9]	Cytotoxicity LC50/GI50 Hela cells (HELA cells (Acc57))	IC50 ([1]; read-out: Elastase IC50)	IC50 ([7]; read-out: Cathepsin G IC50)	IC50 [8]
CC[C@H](C)[C@@H]1NC(=O)[C@@H]2CCCN2C(=O)[C@@H]2CCCN2C(=O)[C@H](CC(=O)O)NC(=O)[C@H](CO)NC(=O)[C@H](CCCCN)NC(=O)[C@H]([C@@H](C)O)NC(=O)[C@@H]2CSSC[C@H](NC1=O)C(=O)N[C@@H](Cc1ccc(O)cc1)C(=O)N1CCC[C@@H]1C(=O)N1CCC[C@H]1C(=O)N[C@@H](Cc1ccccc1)C(=O)N2 [Ex. 5] (HELM PEPTIDE1{F.C.T.K.S.D.P.P.I.C.Y.[dP].P}$PEPTIDE1,PEPTIDE1,2:R3-10:R3|PEPTIDE1,PEPTIDE1,1:R1-13:R2$$$V2.0)	> 100 µM	0.5%	0.2%	0%	74%	0%	92%	56 nM	3%	5.7%				
CCCC[C@@H]1NC(=O)[C@@H]2CCCN2C(=O)[C@@H]2CCCN2C(=O)[C@H](CC(=O)O)NC(=O)[C@H](CO)NC(=O)[C@H](CCCCN)NC(=O)[C@H]([C@@H](C)O)NC(=O)[C@@H]2CSSC[C@H](NC1=O)C(=O)N[C@@H](CO)C(=O)N1CCC[C@@H]1C(=O)N1CCC[C@H]1C(=O)N[C@@H](Cc1ccccc1)C(=O)N2 [Ex. 15] (HELM PEPTIDE1{F.C.T.K.S.D.P.P.[Nle].C.S.[dP].P}$PEPTIDE1,PEPTIDE1,2:R3-10:R3|PEPTIDE1,PEPTIDE1,1:R1-13:R2$$$V2.0)	> 100 µM			0%		12.7%	95.0%	56 nM	54.2%		100 µM			
CC[C@H](C)[C@@H]1NC(=O)[C@@H]2CCCN2C(=O)[C@H]2CCCN2C(=O)[C@H](CCCNC(=N)N)NC(=O)[C@@H]2CSSC[C@H](NC1=O)C(=O)N[C@@H]([C@@H](C)O)C(=O)N[C@@H](CCCCN)C(=O)N[C@@H](CO)C(=O)N[C@@H](CC(=O)O)C(=O)N1CCC[C@H]1C(=O)N1CCC[C@H]1C(=O)N[C@@H](CCC(N)=O)C(=O)N2 [Ex. 17] (HELM PEPTIDE1{I.C.T.K.S.D.P.P.Q.C.R.[dP].P}$PEPTIDE1,PEPTIDE1,2:R3-10:R3|PEPTIDE1,PEPTIDE1,1:R1-13:R2$$$V2.0)	> 100 µM	0%		0.1%	90.4%	27.6%	90.0%	55 nM	16%		94 µM			
CC[C@H](C)[C@@H]1NC(=O)[C@@H]2CCCN2C(=O)[C@H]2CCCN2C(=O)[C@H](CCCNC(=N)N)NC(=O)[C@@H]2CSSC[C@H](NC1=O)C(=O)N[C@@H]([C@@H](C)O)C(=O)N[C@@H](CCCCN)C(=O)N[C@@H](CO)C(=O)N[C@@H](CC(=O)O)C(=O)N1CCC[C@H]1C(=O)N1CCC[C@H]1C(=O)N[C@@H](Cc1ccc(O)cc1)C(=O)N2 [Ex. 18] (HELM PEPTIDE1{I.C.T.K.S.D.P.P.Y.C.R.[dP].P}$PEPTIDE1,PEPTIDE1,2:R3-10:R3|PEPTIDE1,PEPTIDE1,1:R1-13:R2$$$V2.0)	> 100 µM	0%		0%	88.3%	32.5%	84%	47 nM	25%		100 µM			
CC[C@H](C)[C@@H]1NC(=O)[C@@H]2CCCN2C(=O)[C@@H]2CCCN2C(=O)[C@H](CC(=O)O)NC(=O)[C@H](CO)NC(=O)[C@H](CCCCN)NC(=O)[C@H]([C@@H](C)O)NC(=O)[C@@H]2CSSC[C@H](NC1=O)C(=O)N[C@@H](Cc1ccc(O)cc1)C(=O)N1CCC[C@@H]1C(=O)N1CCC[C@H]1C(=O)N[C@@H](CC1CCCCC1)C(=O)N2 [Ex. 36] (HELM PEPTIDE1{[Cha].C.T.K.S.D.P.P.I.C.Y.[dP].P}$PEPTIDE1,PEPTIDE1,2:R3-10:R3|PEPTIDE1,PEPTIDE1,1:R1-13:R2$$$V2.0)				0%	73.3%			41 nM		0%	83 µM			
CCCC[C@@H]1NC(=O)[C@@H]2CCCN2C(=O)[C@@H]2CCCN2C(=O)[C@H](CC(=O)O)NC(=O)[C@H](CO)NC(=O)[C@H](CCCCN)NC(=O)[C@H]([C@@H](C)O)NC(=O)[C@@H]2CSSC[C@H](NC1=O)C(=O)N[C@@H](CO)C(=O)N1CCC[C@@H]1C(=O)N1CCC[C@H]1C(=O)N[C@@H](Cc1ccccc1)C(=O)N2 [Ex. 53] (HELM PEPTIDE1{F.C.T.K.S.D.P.P.[Nle].C.S.[dP].P}$PEPTIDE1,PEPTIDE1,2:R3-10:R3|PEPTIDE1,PEPTIDE1,1:R1-13:R2$$$V2.0)				0%		12.7%	95%		54%		63 µM	> 100 µM	56 nM	
CC[C@H](C)[C@@H]1NC(=O)[C@@H]2CCCN2C(=O)[C@H]2CCCN2C(=O)[C@H](CCCNC(=N)N)NC(=O)[C@@H]2CSSC[C@H](NC1=O)C(=O)N[C@@H]([C@@H](C)O)C(=O)N[C@@H](CCCCN)C(=O)N[C@@H](CO)C(=O)N[C@@H](CC(=O)O)C(=O)N1CCC[C@H]1C(=O)N1CCC[C@H]1C(=O)N[C@@H](CCC(N)=O)C(=O)N2 [Ex. 55] (HELM PEPTIDE1{I.C.T.K.S.D.P.P.Q.C.R.[dP].P}$PEPTIDE1,PEPTIDE1,2:R3-10:R3|PEPTIDE1,PEPTIDE1,1:R1-13:R2$$$V2.0)				0.1%	90.4%	27.6%	90%		16%		94 µM	> 100 µM	55 nM	
CCCC[C@@H]1NC(=O)[C@@H]2CCCN2C(=O)[C@@H]2CCCN2C(=O)[C@H](CC(=O)O)NC(=O)[C@H](CO)NC(=O)[C@H](CCCCN)NC(=O)[C@H]([C@@H](C)O)NC(=O)[C@@H]2CSSC[C@H](NC1=O)C(=O)N[C@@H](CCCNC(=N)N)C(=O)N1CCC[C@@H]1C(=O)N1CCC[C@H]1C(=O)N[C@@H]([C@@H](C)CC)C(=O)N2 [Ex. 57] (HELM PEPTIDE1{I.C.T.K.S.D.P.P.[Nle].C.R.[dP].P}$PEPTIDE1,PEPTIDE1,2:R3-10:R3|PEPTIDE1,PEPTIDE1,1:R1-13:R2$$$V2.0)		11%	32%	0%	82.2%	26.9%	94%		0%	4%		> 100 µM	41 nM	
CCCC[C@@H]1NC(=O)[C@H](Cc2ccccc2)NC(=O)[C@H]2CCCN2C(=O)[C@H](Cc2ccc(O)cc2)NC(=O)[C@@H]2CSSC[C@H](NC1=O)C(=O)N[C@@H]([C@@H](C)O)C(=O)N[C@@H](C)C(=O)N[C@@H](CO)C(=O)N[C@@H]([C@@H](C)CC)C(=O)N1CCC[C@H]1C(=O)N1CCC[C@H]1C(=O)N[C@@H](CCC(N)=O)C(=O)N2 [Ex. 122] (HELM PEPTIDE1{[Nle].C.T.A.S.I.P.P.Q.C.Y.[dP].F}$PEPTIDE1,PEPTIDE1,2:R3-10:R3|PEPTIDE1,PEPTIDE1,1:R1-13:R2$$$V2.0)	0.018 µM	0%	19.6%		0.2%	6.4%	19%	35100 nM		11.1%	29 µM			58 µM
